The text below walks through data of US20230310462A1, “COMBINATION DRUG FOR THE CONTROL AND MANAGEMENT OF TYPE 2 DIABETES MELLITUS” (LABORATORIOS SILANES S.A. DE C.V., priority 2020, published 2023).

Structures are written as SMILES.

Series [1] in a line: Single-dose crossover comparative bioavailability study, fixed combination vs co-administered reference drugs, plasma HPLC-MS/MS. The method, then:
In another embodiment of the invention, bioavailability tests are performed to determine whether there are differences in the magnitude and rate of absorption between the test product of this invention (fixed dose combination) and co-administration of reference drugs that impact the bioavailability of the drugs upon administration.
On the other hand, the determination of the pharmacokinetic parameters of Cmax and area under the plasma concentration curve with respect to time (ABC0-t) are determined, which allow characterizing the bioavailability of the drug of this invention from its dosage form, in terms of speed and degree of respective absorption. Therefore, the purpose of the bioavailability tests is to determine if there are differences in the magnitude and speed of absorption between the test product of the present invention (fixed combination) and the co-administration of reference drugs that impact the bioavailability of the drugs when administered under fasting conditions.
A total of 44 healthy volunteers (27 men and 17 women) were randomized in the study. […] After a period of 7 half-lives, the pharmacokinetic effect of washout can be completely disregarded. Each volunteer received the treatments under study according to randomization.
The pharmacokinetic parameters were determined through independent model methods. Descriptive statistics are presented below in Tables 19-21.

For series [2] the following is noted: according to biopharmaceutical classification; cited from earlier work.
For series [3] the following is noted: reported, in Mexican population; cited from earlier work.

As to `CCC1=C(C)CN(C(=O)NCCc2ccc(S(=O)(=O)NC(=O)N[C@H]3CC[C@H](C)CC3)cc2)C1=O` [glimepiride], in series [1] (both, human, in vivo), the “Intrasubject Variability Coefficient, Ln (ABC0-t) of glimepiride” value worked out at 15.58% and the “Intrasubject Variability Coefficient, Ln (Cmax) of glimepiride” value is 28.21%. Further, in series [2], the solubility result is recorded as “low”. Besides, the elimination half-life in series [3] is 7.5 ± 4 h.
As for `N#C[C@@H]1CCCN1C(=O)CN[C@@]12C[C@@H]3C[C@@H](CC(O)(C3)C1)C2` [vildagliptin], the “Intrasubject Variability Coefficient, Ln (Cmax)” value in series [1] (both, human, in vivo) is 19.12%. Also, the “Intrasubject Variability Coefficient, Ln (ABC0-t)” value in series [1] (vildagliptin pharmacokinetic parameter) stood at 9.14%. Moreover, the solubility entry in series [2] is reported as “high”.
